Earlier results on two compounds are cited in patent US6620432B2, “Phenytoin sodium pharmaceutical compositions” (Mylan Pharmaceuticals Inc., priority 1999, dated 2003).

The conditions of the series: general statement, no test described.

Structures can show the parent of a compound that is named as a salt.

Turning to `O=C1NC(=O)C(c2ccccc2)(c2ccccc2)N1` [Phenytoin sodium, monosodium salt of 5,5-diphenyl hydantoinate], the Solubility in water result is given as “highly water soluble”.

With `O=C1NC(=O)C(c2ccccc2)(c2ccccc2)N1` [phenytoin], the Solubility in water entry is recorded as “water insoluble”.
